Results: US9579322B2, “Methods for treating neurologic disorders” (EIP Pharma, LLC, priority 2014, dated 2017)

Tests used:
[1] = animals; cited from earlier work
[2] = system: sensory-motor recovery after tMCAO; experiment: Transient MCAO in rats, functional recovery; type: in vivo, Sprague-Dawley rats; details: for change in cylinder test performance from day 7 to day 35: relative to vehicle; for functional recovery, 7-point neuroscore / functional recovery, 20-point neuroscore / functional recovery, limb placing: day 3 to day 42, versus vehicle
Experimental: The objective of this study was to investigate whether chronic twice-a-day treatment with VX-745 started at 48 hours post-occlusion provides sensory-motor recovery and neuroprotection in rats subjected to 120 min middle cerebral artery occlusion (tMCAO) at day 0. Seven and 20-point Neuroscore tests were performed to study sensory-motor deficits and general condition on days 1, 3, 7, 14, 21, 28, 35 and 42 post-ischemia. Cylinder test was performed on days 7, 14, 21 and 35 post-ischemia and limb-placing tests on days 1, 3, 7, 14, 21, 28, 35 and 42. Infarct volume was evaluated by T2-MRI at 24 h post-ischemia and rats were allocated to treatment groups based on the lesion data on day 2 and treatment was started after MRI on day 2. Methods—Male Sprague-Dawley rats were subjected to twice-a-day chronic treatment with VX-745 starting at 48 h after 120 min tMCAO. Lesion size was measured at 24 h with MRI and rats were allocated to dosing groups on day 2 (tMCAO performed on day 0) based on lesion size and limb placing results. Rats were treated with 2 different doses and underwent sensorimotor behavioral test throughout the experiment. Seven and 20-point Neuroscore and limb placing tests were performed to study sensory-motor deficits and general condition before occlusion and on days 1, 3, 7, 14, 21, 28, 35 and 42 post-ischemia. Cylinder test was performed before occlusion and on days 7, 14, 21 and 35 post-ischemia. Animals. Altogether 45 adult male Sprague Dawley rats, purchased from Charles River Laboratories (Sulzfeld, Germany), and weighing 250-300 g were used for the experiment. Animals were housed at a standard temperature (22±1° C.) and in a light-controlled environment (lights on from 7 am to 8 pm) with ad libitum access to food and water. • Group A: 15 tMCAO animals treated twice-a-day with vehicle from day 2 to 42 (5 ml/kg, p.o) • Group B: 15 tMCAO animals treated twice-a-day with VX-745 from day 2 to 42 (1.5 mg/kg, p.o). • Group C: 15 tMCAO animals treated twice-a-day with VX-745 from day 2 to 42 (4.5 mg/kg, p.o). Transient MCAO Transient focal cerebral ischemia was produced by MCA occlusion at Day 0 in male Sprague-Dawley rats according to Koizumi with modifications (Koizumi et al. Jpn. J. Stroke 8:1-8, 1986). The rats were anesthetized with 5% isoflurane (in 70% N2O and 30% O2; flow 300 ml/min). During the operation the concentration of anesthetic was reduced to 1.0-2.0%. The rectal temperature was maintained at 37.0±1.0° C. with a homeothermic blanket system. After midline skin incision, the right common carotid artery (CCA) was exposed, and the external carotid artery (ECA) was ligated distal from the carotid bifurcation. A 0.22-mm diameter monofilament nylon thread, with blunted tip, was inserted 22-23 mm into the internal carotid artery (ICA) up to the origin of MCA. After the monofilament insertion, CCA was occluded for 2 hours with a suture. After 120 min of ischemia, the MCA blood flow was restored by removal of the filament and the suture. The wound was closed, disinfected, and the animals were allowed to recover from anesthesia. The rats were carefully monitored for possible post-surgical complications after the tMCAO. The rats were fed with standard laboratory diet suspended in tap water after the tMCAO. To prevent dehydration all rats were given an i.p. injection of saline (4 mL per rat) once or twice-a-day as needed. Drug Delivery. VX-745 or vehicle was administered p.o. (5 ml/kg) starting after MRI at 48 h post-ischemia (i.e. Day 2) and continued twice-a day (morning and afternoon) until endpoint day 42. MRI acquisitions in vivo for all rats were performed at 24 h after tMCAO (i.e. […] Rats were allocated to treatment groups on day 2 based on the lesion data and treatment was started on day 2. A 20-point Neuroscore test was used to assess post-ischemic motor and behavioral deficits. The neurological test was conducted by a blinded investigator at pre-stroke (baseline) and on days 1, 3, 7, 14, 21, 28, 35 and 42 post-ischemia. […]

[3] = system: IL-1β signaling and IL-1β production; experiment: Inhibition of IL-1beta signaling versus IL-1beta production; type: cell-based, human; details: for potency for inhibition of cytokine (IL-1beta) signaling relative to inhibition of cytokine production: signaling versus production
paw swelling = details: 10 mg/kg, reference compound in arthritis model; cited from earlier work
PSD95 = PSD95 ELISA of cortex and hippocampus extracts; type: in vivo, Fischer rats
Experimental: The primary objective of this study was to investigate whether pre-treatment with compound VX-745 alleviates cognitive defects in aged rats. Plasma concentration of VX-745 was determined with LC-MS/MS at the end of the study from samples collected 1 hour post dosing. In addition, protein levels of PSD95 in ventral cortex and hippocampus, and levels of IL-1β in the hippocampus were analyzed by specific ELISA assays to evaluate the potential anti-inflammatory effects of VX-745 in the brain
One hour after the last vehicle or VX-745 morning dosing, the animals (10 per dosing group) were deeply anesthetized with pentobarbital and blood samples were collected by cardiac puncture. 500 μl of blood was collected into EDTA microtubes, centrifuged, and plasma collected. The brains were perfused with heparinized saline, and the brains were collected. Right hemisphere was post-fixed by immersion in 4% PFA in 0.1 M PB for 24 h. After a brief wash with phosphate buffer, the hemisphere was cryoprotected in 30% sucrose in PB for 2-3 days, after which it was frozen on liquid nitrogen and stored at −80° C. for optional future immunohistochemical analysis. […]
Cortex and hippocampal soluble extracts were analyzed for PSD95 content using an ELISA kit (Cusabio Biotech Ltd., #CSB-EL006938RA, Lot 031154387), while the levels of Il-1β were analyzed only from hippocampus (R&D Systems, #RLB00, Lot 308544).

amyloid plaque load = experiment: 2-week pilot study in aged Tg2576 mice; type: in vivo; details: 26 month old Tg2576 mice, 2 weeks, versus control animals
hyperalgesic response = details: cited from earlier work
[4] = system: rheumatoid arthritis (RA); details: cited from earlier work
[5] = 250 mg b.i.d, phase 2 clinical, RA patients

For VX-745, the “neurological effects at very high doses” value [1] is given as “adverse neurological effects”, the “change in cylinder test performance from day 7 to day 35” value ([2]; 1.5 mg/kg p.o. twice-a-day) is given as “a trend (p=0.088, two-sided t-test) towards increased improvement” and the “functional recovery, 7-point neuroscore” value ([2]; 1.5 mg/kg) is given as “not further improve functional recovery”. For the same substance, the “functional recovery, 20-point neuroscore” value ([2]; 1.5 mg/kg) was “not further improve functional recovery”, the “functional recovery, limb placing” value ([2]; 1.5 mg/kg) was “not further improve functional recovery” and the “change in cylinder test performance from day 7 to day 35” value ([2]; 4.5 mg/kg p.o. twice-a-day) was “not evident”. The “functional recovery, 7-point neuroscore” value ([2]; 4.5 mg/kg) was “not further improve functional recovery”, the “functional recovery, 20-point neuroscore” value ([2]; 4.5 mg/kg) was “not further improve functional recovery” and the “functional recovery, limb placing” value ([2]; 4.5 mg/kg) was “not further improve functional recovery”. For the same substance, the “functional recovery, 1.5 mg/kg group compared with 4.5 mg/kg group” value ([2]; all measures, change analysis) was “consistently better”, the “IC50 for inhibition of IL-1β signaling relative to IC50 for inhibition of IL-1β production” value ([3]; human systems, prior, previously undisclosed studies) was “approximately half” and the “potency for inhibition of cytokine (IL-1beta) signaling relative to inhibition of cytokine production” value [3] was “approximately twice”. For the same substance, the “potency for inhibition of cytokine (IL-1beta) signaling relative to inhibition of cytokine production” value ([3]; listed as VX745) was “two-fold higher”, the “inhibition of paw swelling” value (paw swelling) was “not as effective at inhibiting paw swelling as other compounds assayed” and the PSD95 protein levels (PSD95; 1.5 mg/kg) was “no evident effects”. For the same substance, the PSD95 protein levels (PSD95; 4.5 mg/kg versus aged vehicle-treated group, p=0.063 Mann-Whitney) was “statistical trend towards higher levels of PSD95”, the amyloid plaque load (amyloid plaque load) was “lower amyloid plaque load than control animals” and the “effect on hyperalgesia at the 3 mg/kg dose” value (hyperalgesic response; 3 mg/kg) was “minimal effect”. The “inhibition of hyperalgesic response” value (hyperalgesic response; rats, 30 mg/kg, 10 mg/kg and 3 mg/kg) was “significant inhibition of hyperalgesic response”, the “adverse events in patients” value [4, 5] was “adverse events, including gastrointestinal effects such as diarrhea and abdominal pain, and elevations in liver transaminases” and the “inflammatory markers and clinical improvement” value [4, 5] was “significant reduction in inflammatory markers and clinical improvement”. For the same substance, the “mean plasma drug concentrations” value ([4]; 250 mg b.i.d, phase 2 clinical) was “approximately 75 ng/m”, the “adverse neurological effects in humans” value ([4]; humans) was “not observed” and the “mean blood concentration in the treatment of rheumatoid arthritis” value ([4]; treatment of rheumatoid arthritis) was “approximately 75 ng/mL”.
